Results: US6737383B1, “Herbicidal oxadiazolidines” (priority 1999, dated 2004)

How the values were obtained:
[1] = tested on: blackgrass; assay: Test B pre/postemergence blackgrass; assay type: in vivo, Alopecurus myosuroides
Procedure, shortened: (§1)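 Test chemicals in a non-phytotoxic solvent mixture with surfactant were sprayed preemergence onto planted seeds and postemergence onto plants 2 to 18 cm tall (1- to 4-leaf stage). After twelve to sixteen days in a greenhouse, injury was visually rated against untreated controls from 0 (no effect) to 10 (complete control).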

[2] = tested on: crabgrass; assay: Test B pre/postemergence crabgrass; assay type: in vivo, Digitaria sanguinalis
Procedure, shortened: as §1

[3] = tested on: morningglory; assay: Test B pre/postemergence morningglory; assay type: in vivo, Ipomoea hederacea
Procedure, shortened: as §1

[4] = tested on: bamyardgrass; assay: Test B flood test barnyardgrass; assay type: in vivo, Echinochloa crus-galli; settings: for Barnyardgrass plant response rating / Plant response rating, Barnyardgrass (0 to 10 scale, 0 is no effect, 10 is complete control): Pre-emergence; for Plant response rating, Barnyardgrass (0 to 10 scale, 0 is no effect, 10 is complete control): Rate 62 g/ha; for Plant response rating, Barnyardgrass (0 to 10 scale, 0 is no effect, 10 is complete control) / Barnyardgrass plant response rating (0 to 10 scale, 0 is no effect, 10 is complete control): visual evaluation after twelve to sixteen days; for Barnyardgrass plant response rating (0 to 10 scale, 0 is no effect, 10 is complete control): under heading Pre-emergence
Procedure, shortened: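 Read-out is a visual response score from 0 (no effect) to 10 (complete control), assigned by comparison with untreated controls. Treatment was applied at the 2-leaf stage, and plants stayed in the greenhouse for twelve to sixteen days before scoring.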

[5] = Postemergence, Rate 125 g/ha, scale 0 to 10, 0 is no effect, 10 is complete control
[6] = Preemergence, Rate 62 g/ha, scale of 0 to 10 where 0 is no effect and 10 is complete control
[7] = Preemergence, Rate 250 g/ha, scale of 0 to 10 where 0 is no effect and 10 is complete control
[8] = Preemergence, Rate 500 g/ha, scale of 0 to 10 where 0 is no effect and 10 is complete control
[9] = Rate 62 g/ha, Postemergence, scale 0 to 10, 0 no effect, 10 complete control
[10] = Rate 500 g/ha, Postemergence, scale 0 to 10, 0 no effect, 10 complete control
[11] = Rate 250 g/ha, flood-test species, scale 0 to 10, 0 is no effect, 10 is complete control
[12] = Rate 500 g/ha, flood test species, scale 0 to 10 (0 no effect, 10 complete control)
[13] = Postemergence, Rate 250 g/ha, scale 0 to 10, 0 is no effect, 10 is complete control
[14] = Postemergence, Rate 500 g/ha, scale of 0 to 10 where 0 is no effect and 10 is complete control
[15] = Preemergence, Rate 62 g/ha, scale 0 to 10 (0 no effect, 10 complete control)
[16] = Preemergence, Rate 125 g/ha, scale of 0 to 10 where 0 is no effect and 10 is complete control
[17] = Rate 62 g/ha, Postemergence, scale of 0 to 10 where 0 is no effect and 10 is complete control
[18] = Rate 125 g/ha, flood test species

## CC(C)N(C(=O)n1oc(=O)n(-c2ccc3ccccc3c2)c1=O)c1ccccc1 [Compound 332]
[1]; [5]
  Plant response rating, Blackgrass: 0
[1]; [6]
  Blackgrass plant response rating: 0
[1]; Preemergence, Rate 125 g/ha
  Blackgrass plant response rating (0 to 10 scale): 0
[1]; [7]
  Blackgrass plant response rating: 0
[1]; [8]
  Blackgrass plant response rating: 0
[1]; [9]
  Blackgrass plant response rating: 0
[1]; Rate 250 g/ha, Postemergence, scale of 0 to 10 where 0 is no effect and 10 is complete control
  Plant response rating, Blackgrass: 0
[1]; [10]
  Plant response rating, Blackgrass: 0
[2]; [5]
  Plant response rating, Crabgrass: 1
[2]; [6]
  Crabgrass plant response rating: 0
[2]; Preemergence, Rate 125 g/ha
  Crabgrass plant response rating (0 to 10 scale): 0
[2]; [7]
  Crabgrass plant response rating: 3
[2]; [8]
  Crabgrass plant response rating: 5
[2]; [9]
  Crabgrass plant response rating: 0
[2]; [10]
  Plant response rating, Crabgrass: 3
[3]; [5]
  Plant response rating, Morningglory: 0
[3]; [6]
  Morningglory plant response rating: 0
[3]; Preemergence, Rate 125 g/ha
  Morningglory plant response rating (0 to 10 scale): 0
[3]; [7]
  Morningglory plant response rating: 0
[3]; [8]
  Morningglory plant response rating: 0
[3]; [9]
  Morningglory plant response rating: 0
[3]; [10]
  Plant response rating, Morningglory: 0
[4]; Rate 1000 g/ha, scale 0 to 10 (0 no effect, 10 complete control)
  Barnyardgrass plant response rating: 0
[4]; Rate 125 g/ha, flood test species, scale 0 to 10 where 0 is no effect and 10 is complete control
  Barnyardgrass plant response rating: 0
[4]; [11]
  Barnyardgrass plant response rating: 0
[4]; [12]
  Barnyardgrass plant response rating: 0

## CC(C)N(C(=O)n1oc(=O)[nH]c1=O)c1ccc(F)cc1F [Compound 391]
[1]; [13]
  Plant response rating, Blackgrass: 0
[1]; [14]
  Blackgrass plant response rating: 0
[1]; [15]
  Plant response rating, Blackgrass: 0
[1]; [16]
  Plant response rating, Blackgrass: 0
[1]; [7]
  Blackgrass plant response rating: 0
[1]; [8]
  Blackgrass plant response rating: 0
[2]; [5]
  Plant response rating, Crabgrass: 0
[2]; [13]
  Plant response rating, Crabgrass: 0
[2]; [14]
  Crabgrass plant response rating: 0
[2]; [15]
  Plant response rating, Crabgrass: 0
[2]; [16]
  Plant response rating, Crabgrass: 0
[2]; [7]
  Crabgrass plant response rating: 0
[2]; [8]
  Crabgrass plant response rating: 0
[2]; [17]
  Crabgrass plant response rating: 0
[3]; [13]
  Plant response rating, Morningglory: 0
[3]; [14]
  Morningglory plant response rating: 0
[3]; [15]
  Plant response rating, Morningglory: 0
[3]; [16]
  Plant response rating, Morningglory: 0
[3]; [7]
  Morningglory plant response rating: 0
[3]; [8]
  Morningglory plant response rating: 0
[3]; [17]
  Morningglory plant response rating: 0
[4]; flood test species
  Plant response rating, Barnyardgrass (0 to 10 scale, 0 is no effect, 10 is complete control): 0
[4]; [18]
  Barnyardgrass plant response rating (0 to 10 scale, 0 is no effect, 10 is complete control): 0
[4]; [11]
  Barnyardgrass plant response rating: 0
[4]; [12]
  Barnyardgrass plant response rating: 0

## CC(C)N(C(=O)n1oc(=O)n(C(C)Cl)c1=O)c1ccc(F)cc1 (stereo not drawn) [Compound 393]
[1]; [5]
  Plant response rating, Blackgrass: 2
[1]; [13]
  Plant response rating, Blackgrass: 3
[1]; [14]
  Blackgrass plant response rating: 8
[1]; [15]
  Plant response rating, Blackgrass: 0
[1]; [16]
  Plant response rating, Blackgrass: 0
[1]; [7]
  Blackgrass plant response rating: 0
[1]; [8]
  Blackgrass plant response rating: 3
[1]; [17]
  Blackgrass plant response rating: 0
[2]; [5]
  Plant response rating, Crabgrass: 1
[2]; [13]
  Plant response rating, Crabgrass: 5
[2]; [14]
  Crabgrass plant response rating: 8
[2]; [15]
  Plant response rating, Crabgrass: 0
[2]; [16]
  Plant response rating, Crabgrass: 2
[2]; [7]
  Crabgrass plant response rating: 3
[2]; [8]
  Crabgrass plant response rating: 8
[2]; [17]
  Crabgrass plant response rating: 0
[3]; [13]
  Plant response rating, Morningglory: 0
[3]; [14]
  Morningglory plant response rating: 0
[3]; [15]
  Plant response rating, Morningglory: 0
[3]; [16]
  Plant response rating, Morningglory: 0
[3]; [7]
  Morningglory plant response rating: 0
[3]; [8]
  Morningglory plant response rating: 2
[3]; [17]
  Morningglory plant response rating: 0
[4]; flood test species
  Plant response rating, Barnyardgrass (0 to 10 scale, 0 is no effect, 10 is complete control): 0
[4]; [18]
  Barnyardgrass plant response rating (0 to 10 scale, 0 is no effect, 10 is complete control): 0
[4]; [11]
  Barnyardgrass plant response rating: 0
[4]; [12]
  Barnyardgrass plant response rating: 0
